Measurements: patent US9518038B2, “Condensation product of theanine derivative and carboxylic acid coumarin derivative, its intermediate, preparation method and use thereof” (SHANDONG YINGDONG YINGHAO BIOTECHNOLOGY, INC., priority 2012, dated 2016)

Assays:
H-Ras = assay: Western Blotting, H-Ras level; format: cell-based; conditions: human liver cancer cells, Lewis lung cancer cells and other cancer cell lines and tumor tissues, read-out: Effective concentration (IC50) for inhibition of H-Ras
Text: (§1) Antibodies: primary antibodies of VEGFR, EGFR, c-Met, K-Ras, H-Ras, Akt, NF-κB, Cyclin D1, ER-alpha, Dvl-1, Dvl-2, Dvl-3, MMP-9, MMP2, β-catenin, Bcl-2, Bax, p53, p21, E-cadherin and Caspase3 protein, purchased from American Cell Signaling Technology Company and Santa Cruz Technology Company; and H3 acetylation, H4 acetylation and HDAC (HDAC3, HDAC4 and the like) Antibody Sample Kits, purchased from Cell Signaling Technology Company of the U.S.
(§2) (3) polyacrylamide gel electrophoresis (SDS-PAGE): an equal amount of protein lysate sample was used to separate protein, film transfer, and blocking, treated with appropriate primary antibodies and secondary antibodies in sequence, and the film was washed, then the color was developed with ECL kit, and a blot protein band was detected by exposure of an X-ray film; and a Gel-Pro Analyzer was used for quantitative analysis of gray degree, optical density value of the control group and the drug treatment group in various concentration were respectively compared with that of internal reference, the obtained ratios were respectively compared with the control group, and the protein expression level was semi-quantified.

[1] = tested on: human cervical cancer cells Hela xenograft; assay: In-vivo growth of Hela xenografts in nude mice; parameters: species or system BALB/c nude mice; conditions: Mus musculus, ip, vs DMSO solvent control, read-out: Curative effect (inhibition rate %) of tumor weight; for inhibition in vivo at 60 mg/kg: 60 mg/kg intraperitoneal once a day; for inhibition in vivo at 90 mg/kg: 90 mg/kg intraperitoneal once a day
Experimental: RPMI1640 and DMEM culture solutions: Hyclone Company; inactivated fetal bovine serum: Hyclone Company, preserved at −20° C.; trypsin: Amersco Company; and 0.4% trypan blue: Sigma Company;
(3) Observation of growth of tumors in nude mice: the activities (including food intake, traits of urine and stool, mental state and the like) of the nude mice and the tumor growth time and growth situation of the transplanted tumors were observed every day, the body weight and the size of the tumors were measured once every 2-3 days. The long diameter a and the short diameter b (mm) of each tumor were measured by a vernier caliper to calculate the volume, wherein the volume V=π1/2·ab^2 (mm^3);
(4) sacrifice of animals: the mice were anesthetized and photoed after treatment experiments; the nude mice were sacrificed by breaking neck, the tumor tissues were stripped under sterile conditions and the weight of the tumors was weighed; and the effects of the drugs on pathology and toxicity of the various organs and tissues were detected.

E-cadherin = assay: Western Blotting, increase of E-cadherin level; format: cell-based; conditions: liver cancer cells, Lewis lung cancer cells and other cancer cell lines and tumor tissue protein lysates, 48 h treatment, read-out: Effective concentration to increase E-cadherin by 50%
Text: as §1, §2

HDAC4 [2] = assay: HDAC4 enzyme activity in nuclear extracts of human tumor xenografts of treated mice; conditions: second value of the pair HDAC3 and HDAC4, SAHA 25 mg/kg
Experimental: For the detection of the effect of the drugs on enzyme activity of EZH2 and HDAC of in-vivo tumors, the tumors were separately excised after 6 h of medication, total proteins and nucleoproteins were extracted separately to detect and analyze the activity of the enzyme.
(2) 50 μl of diluted sample solution was added into each reaction well, the plate was sealed with a plate-sealing film and reacted at room temperature for 30 min;
(3) the plate-sealing film was carefully peeled off, the liquid was removed, dried, 150 μl of washing liquid was added into each well, stood for 30 s, then the liquid was removed, repeated twice, and dried;
(4) 2 μl of HDAC enzyme or tumor tissue nuclear extracts was respectively uniformly mixed with 28 μl of diluted sample solution, added into the wells, the plate was sealed with the plate-sealing film and reacted at 37° C. for 60 min;
(5) the plate was washed for three times, wherein the operation was the same as that in (3); and a diluted antibody capture working solution was added into each reaction well according to 50 μl/well and reacted on a shaking bed at room temperature for 60 min;
(6) the plate was washed for four times, wherein the operation was the same as that in (3);
(7) a diluted antibody detection working solution was added into each reaction well according to 50 μl/well and reacted at room temperature for 30 min;
(8) the plate was washed for five times, wherein the operation was the same as that in (3);
a color developing agent was added according to 100 μl/well, and performed dark development for 2-10 min;
(9) 50 μl of stop solution was added into each well for stopping the reaction when the color in the well with a standard product turned blue with medium intensity, the color immediately turned yellow from blue after the addition;
(10) the light absorbance (OD value) of each well was measured in sequence at the wavelength of 450 nm; wherein the measurement should be performed within 15 min after addition of the stop solution; and

p53 = assay: Western Blotting, increase of p53 level; format: cell-based; conditions: liver cancer cells, Lewis lung cancer cells and other cancer cell lines and tumor tissue protein lysates, 48 h treatment, read-out: Effective concentration to increase p53 by 50%
Text: as §1, §2

HDAC3 = assay: Western Blotting, HDAC3 level; format: cell-based; conditions: human liver cancer cells, Lewis lung cancer cells and other cancer cell lines and tumor tissues, read-out: Effective concentration (IC50) for inhibition of HDAC3
Text: as §1, §2

[3] = tested on: human lung cancer cells H460; assay: MTT growth inhibition, H460 cells; format: cell-based; conditions: NCI-H460, 72 h after treatment, read-out: Drug concentration (IC50) at which 50% cancer cells survived
HDAC4 [4] = assay: Western Blotting, HDAC4 level; format: cell-based; conditions: human liver cancer cells, Lewis lung cancer cells and other cancer cell lines and tumor tissues, read-out: Effective concentration (IC50) for inhibition of HDAC4
Text: as §1, §2

[5] = tested on: human prostate cancer cells PC-3; assay: MTT growth inhibition, PC-3 cells; format: cell-based; conditions: 72 h after treatment, read-out: Drug concentration (IC50) at which 50% cancer cells survived
[6] = tested on: human pancreatic cancer cells PANC-1; assay: MTT growth inhibition, PANC-1 cells; format: cell-based; conditions: 72 h after treatment, read-out: Drug concentration (IC50) at which 50% cancer cells survived
VEGFR1 = assay: Western Blotting, VEGFR1 level; format: cell-based; conditions: human liver cancer cells, Lewis lung cancer cells and other cancer cell lines and tumor tissues, read-out: Effective concentration (IC50) for inhibition of VEGFR1
Text: as §1, §2

Q: With CCNC(=O)CCC(NC(=O)c1cc2cc(F)ccc2oc1=O)C(=O)OCC (stereo in doubt) [Compound Ie, (R)-2-(6-F-2-oxo-2H-benzopyran-3-carboxamido)-5-ethylamino-5-oxo-pentanoic acid ethyl ester] as the molecule, how does the IC50 (H-Ras) read?
A: < 60 µM

Q: And the inhibition in vivo at 60 mg/kg [1]?
A: 60.7%

Q: And the inhibition in vivo at 90 mg/kg [1]?
A: 70.5%

Q: What about the EC50 (E-cadherin) of the same molecule?
A: < 65 µM

Q: What about the “decrease of HDAC4 enzyme activity/inhibition rate” value (HDAC4 [2]; A549 tumor grown in vivo) of the same molecule?
A: 72%*(A549)-

Q: And the “decrease of HDAC4 enzyme activity/inhibition rate” value (HDAC4 [2]; MCF7 tumor grown in vivo)?
A: 67%*(MCF7)

Q: And the “decrease of HDAC4 enzyme activity/inhibition rate” value (HDAC4 [2]; MDA-MB231 tumor grown in vivo)?
A: 62%*(MDA-MB231)

Q: And the “decrease of HDAC4 enzyme activity/inhibition rate” value (HDAC4 [2]; SMMC7721 tumor grown in vivo)?
A: 65%*(SMMC7721);

Q: And the EC50 (p53)?
A: < 100 µM

Q: And the IC50 (HDAC3)?
A: < 55 µM

Q: What about the IC50 [3] of the same molecule?
A: 100 µM

Q: What about the IC50 (HDAC4 [4]) of the same molecule?
A: < 50 µM

Q: What about the IC50 [5] of the same molecule?
A: 127 µM

Q: And the IC50 [6]?
A: 72 µM

Q: And the IC50 (VEGFR1)?
A: < 110 µM

Q: CCNC(=O)CC[C@@H](NC(=O)c1cc2cc(Br)cc(Br)c2oc1=O)C(=O)OCC [Compound Ih, (R)-2-(6,8-dibromo-2-oxo-2H-benzopyran-3-carboxamido)-5-ethylamino-5-oxo-pentanoic ethyl ester] was tested. Which IC50 (H-Ras) did it give?
A: < 65 µM

Q: And the inhibition in vivo at 60 mg/kg [1]?
A: 62.9%

Q: What about the inhibition in vivo at 90 mg/kg [1] of the same molecule?
A: 72.6%

Q: What about the EC50 (E-cadherin) of the same molecule?
A: < 70 µM

Q: What about the “decrease of HDAC4 enzyme activity/inhibition rate” value (HDAC4 [2]; A549 tumor grown in vivo) of the same molecule?
A: 59%*(A549)-

Q: And the “decrease of HDAC4 enzyme activity/inhibition rate” value (HDAC4 [2]; MCF7 tumor grown in vivo)?
A: 66%*(MCF7)

Q: And the “decrease of HDAC4 enzyme activity/inhibition rate” value (HDAC4 [2]; MDA-MB231 tumor grown in vivo)?
A: 64%*(MDA-MB231)

Q: What about the “decrease of HDAC4 enzyme activity/inhibition rate” value (HDAC4 [2]; SMMC7721 tumor grown in vivo) of the same molecule?
A: 62%*(SMMC7721);

Q: And the EC50 (p53)?
A: < 70 µM

Q: And the IC50 (HDAC3)?
A: < 65 µM

Q: And the IC50 [3]?
A: 109 µM

Q: And the IC50 (HDAC4 [4])?
A: < 50 µM

Q: What about the IC50 [5] of the same molecule?
A: 87 µM

Q: What about the IC50 [6] of the same molecule?
A: 78 µM

Q: What about the IC50 (VEGFR1) of the same molecule?
A: < 100 µM

Q: For CCNC(=O)CC[C@@H](NC(=O)c1cc2cc(Cl)cc(Cl)c2oc1=O)C(=O)OCC [Compound Ig, (R)-2-(6,8-dichloro-2-oxo-2H-benzopyran-3-carboxamido)-5-ethylamino-5-oxo-pentanoic ethyl ester], which IC50 (H-Ras) is on record?
A: < 65 µM

Q: And the inhibition in vivo at 60 mg/kg [1]?
A: 56.7%

Q: What about the inhibition in vivo at 90 mg/kg [1] of the same molecule?
A: 70.3%

Q: And the EC50 (E-cadherin)?
A: < 70 µM

Q: And the “decrease of HDAC4 enzyme activity/inhibition rate” value (HDAC4 [2]; A549 tumor grown in vivo)?
A: 63%*(A549)-

Q: What about the “decrease of HDAC4 enzyme activity/inhibition rate” value (HDAC4 [2]; MCF7 tumor grown in vivo) of the same molecule?
A: 68%*(MCF7)

Q: And the “decrease of HDAC4 enzyme activity/inhibition rate” value (HDAC4 [2]; MDA-MB231 tumor grown in vivo)?
A: 66%*(MDA-MB231)

Q: And the “decrease of HDAC4 enzyme activity/inhibition rate” value (HDAC4 [2]; SMMC7721 tumor grown in vivo)?
A: 64%*(SMMC7721);

Q: And the EC50 (p53)?
A: < 70 µM

Q: And the IC50 (HDAC3)?
A: < 65 µM

Q: And the IC50 [3]?
A: 93 µM

Q: What about the IC50 (HDAC4 [4]) of the same molecule?
A: < 50 µM

Q: What about the IC50 [5] of the same molecule?
A: 45 µM

Q: What about the IC50 [6] of the same molecule?
A: 71 µM

Q: What about the IC50 (VEGFR1) of the same molecule?
A: < 100 µM
